Measurements taken from patent US20040106124A1, “Methods for improving the treatment of major depression by genotyping for the gene for apolipoproteine e4 and for improving the terapeutic response of humans having major depression and carrying the gene for apolipoprotein e4” (priority 2001, published 2004).

Columns and labels:
[1] = tested on: patients 65 years of age and older with major depression; assay: Mini Mental State Examination (MMSE), cognition, in 8-week double-blind comparison; assay type: in vivo, human; details: for mean MMSE score, ε4 carriers compared with noncarriers: week 8, full cohort, analysis of covariance
Method: (§1) A multi-center, randomized, double-blind, 8-week comparison of paroxetine and mirtazapine was performed for 246 nondemented, cognitively intact patients 65 years of age and older with major depression. All patients were genotyped at the apoE locus as discussed further below.
(§2) After an initial evaluation period, the mirtazapine patients started with a 15 mg dose per day. After two weeks of treatment (Day 14), patients' dosages were raised to 30 mg per day. […] Subjects who rate “Much Improved” or “Very Much Improved” on the CGI Scale I continued on the same dose they were receiving during the previous week.
(§3) For paroxetine, the dosing system was the same, except that the starting dosage was 20 mg per day, raised to 30 mg per day, and to a maximum of 40 mg per day.
This test represents a brief standardized method to grade cognitive mental status. The test assesses orientation, attention, immediate and short-term recall, language, and the ability to follow verbal and written commands. The lower the score, the lower the cognitive mental status.
To screen patients for the gene, genomic DNA was extracted from EDTA-treated whole blood using the Puregene DNA extraction kit (available from Gentra Systems). […] J. Psychiatr. 154:603-608, 1997. Genotypes were determined by two observers blind as to the clinical or neuropathological diagnosis.
All statistical analyses were performed using the SAS software package (available from SAS Institute). […] For remitter and responder analyses of clinical measures of depression, Cochran-Mantel-Haenszel statistics were used. For comparison of medication and genotype groups on baseline demographic measures, two-way analyses of variance were used.

[2] = tested on: patients 65 years of age and older with major depression; assay: Discontinuation due to adverse events in 8-week double-blind comparison; assay type: in vivo, human
Method: (§4) All statistical analyses were performed using the SAS software package (available from SAS Institute). For clinical measures of depression (HDRS-21, HDRS-17, GDS, and CGI), analyses of covariance were performed with baseline values as the covariate, and apoE genotype (ε4 allele carrier vs. non-carder) and medication (mirtazapine, paroxetine) as the predictors. For remitter and responder analyses of clinical measures of depression, Cochran-Mantel-Haenszel statistics were used. For comparison of medication and genotype groups on baseline demographic measures, two-way analyses of variance were used.

[3] = Plasma drug concentrations in 8-week double-blind comparison
Method: as §1, §2, §3

[4] = tested on: patients 65 years of age and older with major depression; assay: Geriatric Depression Scale (GDS) in 8-week double-blind comparison; assay type: in vivo, human; details: for GDS scores, ε4 carriers compared with noncarriers / 50% reduction in GDS score, ε4 carriers compared with those without an ε4 allele / GDS scores, patients with an ε4 allele compared with those without: day 14; for GDS scores, ε4 carriers compared with noncarriers: Caucasian patients; for 50% reduction in GDS score, ε4 carriers compared with those without an ε4 allele / GDS scores, patients with an ε4 allele compared with those without / 50% reduction in GDS score, ε4 carriers compared with noncarriers: full cohort; for number of patients showing a 50% reduction in GDS, ε4 carriers compared with noncarriers / 50% reduction in GDS score, ε4 carriers compared with noncarriers: day 28; for number of patients showing a 50% reduction in GDS, ε4 carriers compared with noncarriers: Caucasian subjects
Method: Geriatric Depression Scale (GDS) (Yesavage, J. A. et al., J. Psychiatr. Res. 17:37-49, 1983), a self-rating scale developed specifically for rating depression in the elderly. In the GDS, a lower rating signifies less depression. GDS 50% responders are defined as subjects with a decrease on a post-baseline assessment of at least 50% as compared to baseline.
(§5) J. Psychiatr. 154:603-608, 1997.
as §4

[5] = tested on: patients 65 years of age and older with major depression; assay: Clinical Global Impression Scale (CGI) in 8-week double-blind comparison; assay type: in vivo, human; details: day 14; for CGI scores, ε4 carriers compared with those without an ε4 allele: interaction p=0.029
Description: Clinical Global Impression Scale (CGI) (Guy, W., ECDEU Assessment Manual for Psychopharmacology, DHEW Publication No. (ADM) 76-338, rev. 1976). The CGI scale is a global 7-point rating of the severity of the illness taking into account the preceding week (CGI-Severity) and a global 7-point rating of the clinical status of the subject since baseline (CGI-Change). A responder is defined as being “Much Improved” or “Very Much Improved”—having a CGI score of at least 2 according to CGI-Change. Thus, a higher CGI-Severity score corresponds to more severe depression whereas a higher CGI-Change score corresponds to lessened depression, or an improvement in alleviating the symptoms of depression.
as §5, §4

[6] = tested on: patients 65 years of age and older with major depression; assay: Hamilton Depression Rating Scale (HDRS-17, HDRS-21) in 8-week double-blind comparison of paroxetine and mirtazapine; assay type: in vivo, human; details: for HDRS-21 scores, ε4 carriers compared with those without an ε4 allele: interaction p=0.033; for HDRS-17 scores, ε4 carriers compared with those without an ε4 allele: interaction p=0.036; for HDRS-21 50% responders: patients carrying an ε4 allele; for rate and onset of antidepressant response, mirtazapine compared with paroxetine: early weeks of treatment, summary of the example
Description: Hamilton Depression Rating Scale (HDRS; 17 and 21 item versions of a structured interview) (Hamilton, M., J. Neurol. Neurosurg. Psychiatr. 23:56-62, 1960; Hamilton, M., Br. J. Soc. Clin. Psychol. 6:278-296,1967). […] In other words, a lower rating in the HDRS scale signifies less depression. In contrast, HDRS remitters, which are those patients showing the least depression, are defined as subjects who have an HDRS-17 score of less than 7 at a post-baseline visit.
as §5, §4

[7] = day 14, Caucasian patients, p=0.006
[8] = day 14, patients with an ε4 allele, full cohort

mean MMSE score, ε4 carriers compared with noncarriers [1] | SMILES | GDS scores, ε4 carriers compared with noncarriers [4] | 50% reduction in GDS score, ε4 carriers compared with those without an ε4 allele [4] | GDS scores, patients with an ε4 allele compared with those without [4] | number of patients showing a 50% reduction in GDS, ε4 carriers compared with noncarriers [4] | 50% reduction in GDS score, ε4 carriers compared with noncarriers [4] | CGI scores, ε4 carriers compared with noncarriers ([5]; Caucasian patients) | CGI scores, ε4 carriers compared with those without an ε4 allele ([5]; full cohort) | HDRS scores, improvement of ε4 carriers compared with noncarriers ([6]; day 14, Caucasian patients) | HDRS-21 scores, ε4 carriers compared with those without an ε4 allele ([6]; day 14, full cohort) | HDRS-17 scores, ε4 carriers compared with those without an ε4 allele ([6]; day 14, full cohort) | HDRS-21 50% responders ([6]; day 14, full cohort) | HDRS-17 remitters [6, 8] | rate and onset of antidepressant response, mirtazapine compared with paroxetine [6] | other results
no effect | CN1CCN2c3ncccc3Cc3ccccc3C2C1 (stereo not shown) [mirtazapine, 1,2,3,4,10,14b-hexahydro-2-methylpyrazino [2,1-a]pyrido[2,3-c]benzazepine] | significantly lower | significantly more likely | large decrease | significantly more | significantly more | significantly better | significantly lower scores | greater improvement | significantly lower scores | significantly lower scores | 48% | 28% | higher rate of antidepressant response | number of patients who discontinued due to adverse events, ε4 carriers compared with noncarriers ([2]; in vivo): no significant differences; plasma drug concentrations, ε4 carriers compared with non-ε4 carriers ([3]; in vivo): no differences; CGI scores, mirtazapine treated compared with paroxetine treated subjects ([5]; Caucasian patients, p=0.037): significantly better; improvement in CGI scores, mirtazapine-treated compared with paroxetine-treated patients ([5]; full cohort): Significantly greater improvement; improvement in HDRS-17 scores, mirtazapine-treated compared with paroxetine-treated patients ([6]; day 7, full cohort): significantly greater improvement; mean HDRS-17 scores, mirtazapine compared with paroxetine [6, 7]: significantly lower; mean HDRS-21 scores, mirtazapine compared with paroxetine [6, 7]: significantly lower; percentage of ε4 carriers responding to medication treatment (50% reduction in HDRS-17, HDRS-21, HDRS-17 remission, 50% reduction in GDS), mirtazapine compared with paroxetine ([6]; day 14, Caucasian subjects): greater; improvement in HDRS-17 scores, mirtazapine-treated compared with paroxetine-treated patients ([6]; day 14, full cohort): Significantly greater improvement; improvement in HDRS-21 scores, mirtazapine-treated compared with paroxetine-treated patients ([6]; day 14, full cohort): Significantly greater improvement; HDRS-17 50% responders, ε4 carriers compared with those without an ε4 allele ([6]; day 14, full cohort, p=0.049): significantly more; HDRS-17 remitters ([6]; day 14, patients without an ε4 allele, full cohort): 7.1%
significantly lower | Fc1ccc([C@@H]2CCNC[C@H]2COc2ccc3c(c2)OCO3)cc1 [paroxetine] | no effect | no difference | no significant difference | no significant effect | no effect | no differences | higher scores | less improvement | higher scores | higher scores | none | none | slower onset of anti-depressant action | MMSE score, subjects with an ε4 allele compared with those without ([1]; Caucasian subjects, trend, p=0.05): lower MMSE score; number of patients who discontinued due to adverse events, ε4 carriers compared with noncarriers ([2]; Caucasian subjects): no significant differences; number of patients who discontinued due to adverse events, ε4 carriers compared with noncarriers ([2]; full cohort): no significant differences; plasma drug concentrations, ε4 carriers compared with non-ε4 carriers ([3]; Caucasian subjects): no differences; plasma drug concentrations, ε4 carriers compared with non-ε4 carriers ([3]; full cohort): no differences; HDRS-17 50% responders (50% decrease in HDRS-17 score over baseline) [6, 8]: none
